According to publication PMC5603603, “Linoleic and palmitoleic acid block streptokinase-mediated plasminogen activation and reduce severity of invasive group A streptococcal infection” (Scientific Reports, 2017):
pIC50: −log10 of the molar value. Values joined by “and” are separate entries in the source; they are usually repeats but may differ in a detail not shown here. Equal values may be shown once.

Tests used:
[1] = tested on: S. pyogenes strain AP1; test: Invasive humanized plasminogen murine infection model; format: in vivo, Humanized Plg transgenic AlbPLG1 mice; settings: 50 µg s.c. (approx. 2 mg/kg) once on day of infection; for Hazard ratio (Mantel-Haenszel) treated/untreated: 1 × 10^7 cfu AP1 s.c.; for survival time in comparison with the untreated group: p = 0.0021
Description: All animal experiments were performed in strict accordance with the guidelines of the “European Convention for the Protection of Vertebrate Animals used for Experimental and other Scientific purposes”, with the “Australian Code of Practice for the Care and Use of Animals for Scientific Purposes” and with the “Guidelines for the Care and Use of Laboratory Animals” (National Health and Medical Research Council, Australia). All experiments conducted in Germany were approved by the ethical board of “Niedersächsisches Landesamt für Verbraucherschutz und Lebensmittelsicherheit”, Oldenburg, Germany (animal ethics no.: 33.9-42502-04-12/1009). All experiments conducted in Australia were approved by the University of Queensland Animal Ethics Committee, Brisbane, Australia (animal ethics no.: SCMB/ 553/12/NHMRC). Humanized Plg transgenic AlbPLG1 mice, heterozygous for the human Plg gene[6], were bred and used in the animal facility at the Helmholtz Centre for Infection Research or at the Australian Infectious Disease Research Centre. An overnight culture of the strain AP1 (in THY medium) was re-inoculated in fresh THY medium and grown until mid-log phase (OD 0.4–0.6). Then the bacteria were centrifuged at 4332 × g for 10 min and washed twice in PBS. They were resuspended in PBS and adjusted to an OD of 1.0. Sex- and age-matched (eight- to sixteen-week-old) groups of C57Bl6/J huPlg positive transgenic mice were infected s.c. with 1 × 10^7 cfu of S. pyogenes strain AP1. Cohorts of 15–16 mice were used (the experiment was performed four times with cohorts of 3–5 mice). The specific inoculum dose was administered in a 100 µl volume. Untreated mice received PBS subcutaneously (s.c.) as a control on the day of infection. Treated mice received either 50 µg of linoleic acid (diluted in PBS) or 50 µg of palmitoleic acid (diluted in PBS) s.c. on the day of infection. During the experiment mice were monitored for locomotion, behavior, appearance and weight. Mice were euthanized when they lost more than 20% of weight or when they reached a score of two for three of the following parameters: locomotion, appearance or behavior (authority regulations). The experiment ended after 7 days or after all mice had died.
Significance was determined by using a two-tailed, paired student’s t-test. Survival data were analyzed using GraphPad Prism7 Software. Significance was determined by using a Mantel-Cox- and a Wilcoxon-Test.

[2] = tested on: S. pyogenes strain AP1; test: Clotting assay, escape of streptococci from clot (cluster 2a type streptokinase); format: cell-based; settings: 30 µg/ml, after 4 h, p < 0.05
Description: (§1) To assess whether LA and PA influence the entrapment of bacteria within clots, a 50 ml overnight culture (THY medium) of the S. pyogenes strains AP1 or A666 was centrifuged at 4332 × g for 10 min. […] For clot induction, 100 µl citrate plasma, 100 µl of the respective bacterial suspension and 50 µl thrombin-reagent (Haemochrom Diagnostica) were used. […] Then clots were left untreated (treated with sodium citrate buffer only) or were treated with LA or PA (diluted in sodium citrate buffer). For clots formed with S. pyogenes strain A666, a final concentration of 60 µg/ml was used for both, LA and PA. For those formed with S. pyogenes strain AP1, a final concentration of 30 µg/ml was used. 50 µl of the supernatant of each sample were plated onto blood agar plates in serial dilutions at 0, 2 and 4 h after clot induction and incubated at 37 °C overnight. Colonies were counted the following day to assess the number of bacteria which had escaped the clot. […] Two independent experiments were performed. Standard deviations were calculated accordingly. Citrate plasma was obtained from healthy volunteers who gave their informed consent.

[3] = target: cluster 1 type streptokinase (Streptococcus pyogenes, UniProt P10520); format: biochemical, group A streptococcal strain A328; settings: supernatant-based; for pIC50: cluster 1; for fold lower IC50-values than TXA and EACA: cluster 1 type streptokinase
Description: An overnight culture of the strain A328 (cluster 1 type) or A614 (cluster 2a type) was diluted 1:10 in pre-warmed THY medium and grown to an OD600 of around 0.5 at 37 °C. […] The pellet was resuspended in Tris-HCl buffer (50 mM Tris pH 7.5). Then inhibitory compounds (LA, PA, oleic, myristic, stearic, palmitic, arachidonic, arachidic, linolenic acid, TXA or EACA) were added. Stocks of TXA and EACA were prepared in PBS. Stocks of LA and PA were prepared in methanol and then diluted in PBS. Stocks of arachidic, oleic, arachidonic, myristic, palmitic, stearic and linolenic acid were prepared in 60% DMSO/PBS and then diluted in PBS. The untreated control received the same amount of PBS as in case of TXA and EACA as control or the same amount of methanol diluted in PBS as in case of LA and PA, respectively, or the same amount of DMSO diluted in PBS as in case of the other commercially available fatty acids. […] The assay was run at 37 °C. The absorption was measured at the beginning of the reaction and then every hour at 405 nm after 3 sec of shaking on a Tecan Sunrise ELISAReader using Magellan software. Each experiment was repeated three times. IC50 values were calculated using Microsoft® Excel software.

[4] = target: T1, staphylokinase (Staphylococcus aureus, UniProt P68801); test: Plasminogen assay with staphylokinase as activator of plasminogen; format: biochemical; settings: staphylokinase 2 µg/ml; compared to untreated control
T1 construct: purchased Cedarlane Labs
Description: Supernatant of an overnight culture of the GAS strain A614 was used as this strain secretes a cluster 2a type streptokinase. 75 µl of the culture supernatant was added to the wells of a 96well plate followed by 69 µl PBS, 5 µl S-2251 (10 mM stock solution, chromogenic substrate for the detection of plasmin, Chromogenix) and 1 µl plasminogen (1 mg/ml stock solution, Biopur or Sigma). 1 µl of each myxobacterial extract or each myxobacterial compound (dissolved in methanol, 1 mM) was added to test possible inhibition of plasminogen activation. The assay was run at 37 °C. The absorption was measured at the beginning of the reaction and then every hour at 405 nm after 3 sec of shaking on a Tecan Sunrise ELISA Reader using Magellan software. The reaction was finished when untreated samples had reached an OD405nm of about 1.
The assay was conducted as described above using staphylokinase (Cedarlane Labs) as an activator of plasminogen (staphylokinase final concentration 2 µg/ml per well in 75 µl of PBS. Stocks of LA and PA were prepared in methanol and then diluted in PBS. The untreated control received the same amount of methanol diluted in PBS as in case of treatment with PA or LA. Each experiment was repeated three times.

[5] = target: cluster 2a type streptokinase (Streptococcus pyogenes, UniProt A0A288R465); test: biochemical; format: biochemical, group A streptococcal strain A614; settings: supernatant-based; for pIC50 / fold lower concentration for the same range of inhibition as oleic and linolenic acid: cluster 2a; for fold lower IC50-values than TXA and EACA: cluster 2a type streptokinase
[6] = tested on: S. pyogenes strain A666; test: Clotting assay, escape of streptococci from clot (cluster 2b type streptokinase); format: cell-based; settings: 60 µg/ml, after 4 h, p < 0.05
Description: as §1

Chain of cluster 1 type streptokinase (P00747 20-810): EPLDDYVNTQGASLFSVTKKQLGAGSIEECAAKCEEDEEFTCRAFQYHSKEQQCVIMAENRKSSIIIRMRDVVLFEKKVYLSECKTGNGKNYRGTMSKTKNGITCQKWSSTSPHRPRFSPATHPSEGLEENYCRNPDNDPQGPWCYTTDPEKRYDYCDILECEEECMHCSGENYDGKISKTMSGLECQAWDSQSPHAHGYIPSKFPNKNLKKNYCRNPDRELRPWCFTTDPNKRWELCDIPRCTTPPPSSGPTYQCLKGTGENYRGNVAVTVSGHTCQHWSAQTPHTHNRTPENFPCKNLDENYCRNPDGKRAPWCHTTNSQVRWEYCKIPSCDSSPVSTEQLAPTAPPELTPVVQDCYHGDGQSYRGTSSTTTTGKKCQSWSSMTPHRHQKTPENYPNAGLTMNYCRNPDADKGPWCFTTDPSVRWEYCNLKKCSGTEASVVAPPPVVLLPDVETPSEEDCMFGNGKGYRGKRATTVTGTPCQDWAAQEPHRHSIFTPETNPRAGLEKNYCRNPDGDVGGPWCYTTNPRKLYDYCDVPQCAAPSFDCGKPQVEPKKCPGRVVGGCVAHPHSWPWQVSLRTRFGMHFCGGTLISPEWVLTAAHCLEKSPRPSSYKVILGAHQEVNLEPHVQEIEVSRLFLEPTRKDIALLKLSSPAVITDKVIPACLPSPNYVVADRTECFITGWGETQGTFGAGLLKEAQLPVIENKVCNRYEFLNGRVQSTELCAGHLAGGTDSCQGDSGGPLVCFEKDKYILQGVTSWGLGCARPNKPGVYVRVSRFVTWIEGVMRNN
Chain of cluster 1 type streptokinase (P10520 27-440): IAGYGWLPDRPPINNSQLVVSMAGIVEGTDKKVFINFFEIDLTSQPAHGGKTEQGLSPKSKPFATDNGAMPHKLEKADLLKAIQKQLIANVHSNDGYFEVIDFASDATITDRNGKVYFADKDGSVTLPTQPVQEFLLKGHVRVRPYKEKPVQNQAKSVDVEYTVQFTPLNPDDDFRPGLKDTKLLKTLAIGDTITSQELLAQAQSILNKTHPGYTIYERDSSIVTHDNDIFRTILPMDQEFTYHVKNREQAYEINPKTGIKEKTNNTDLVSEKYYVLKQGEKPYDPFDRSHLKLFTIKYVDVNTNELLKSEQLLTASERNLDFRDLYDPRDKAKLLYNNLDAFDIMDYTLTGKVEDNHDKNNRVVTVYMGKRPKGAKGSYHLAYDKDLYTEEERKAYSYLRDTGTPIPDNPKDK
T1 sequence (P68801 28-163): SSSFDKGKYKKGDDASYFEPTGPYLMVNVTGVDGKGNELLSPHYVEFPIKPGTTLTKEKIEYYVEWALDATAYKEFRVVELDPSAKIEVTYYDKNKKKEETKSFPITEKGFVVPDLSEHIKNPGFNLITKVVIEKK

| Compound | Hazard ratio (Mantel-Haenszel) treated/untreated [1] | survival time in comparison with the untreated group [1] | GAS escaped from the clot compared to the untreated clot [2] | pIC50 [3] | fold lower IC50-values than TXA and EACA [3] | inhibition of staphylokinase-mediated plasminogen activation [4] | pIC50 [5] | fold lower concentration for the same range of inhibition as oleic and linolenic acid [5] | fold lower IC50-values than TXA and EACA [5] | GAS escaped from the clot compared to the untreated clot [6] |
| --- | --- | --- | --- | --- | --- | --- | --- | --- | --- | --- |
| CCCCCC/C=C\CCCCCCCC(=O)O [PA, palmitoleic acid] | 0.1429 | significantly extended the survival time | significantly lower amount of GAS escaped | 4.39 | 500–1000 fold | not inhibited | 4.04 and 3.98 | 3–4 fold | 500–1000 fold | significantly lower amount of GAS escaped |
| CCCCC/C=C\C/C=C\CCCCCCCC(=O)O [LA, linoleic acid] | 0.1429 | significantly extended the survival time | significantly lower amount of GAS escaped | 4.33 and 4.34 | 500–1000 fold | not inhibited | 3.81 and 3.83 | 3–4 fold | 500–1000 fold | significantly lower amount of GAS escaped |
